Reference: patent US20240408064A1, “RAS INHIBITORS, COMPOSITIONS AND METHODS OF USE THEREOF” (GENETOLEAD INC., priority 2021, published 2024)
Values belong to the molecule of their own block, whether it stands above or below them.

Experiments:
HRas^G12V [1] = biological target: T1, HRas^G12V (Homo sapiens (Human), UniProt P01112, G12V); experiment: 19F DLB (ligand-observed 19F NMR) score; format: binding; set-up: scale not given here
How it was run: (§1)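 In the T2-CPMG experiment, echo spacing was 1 ms and total delays ranged over eight values from 1 to 800 ms. Both scores come from 600 MHz NMR of 50 μM HRas G12V mixed with fragment pools at 240 μM each, in phosphate buffer pH 7.4 with NaCl, MgCl2 and TCEP-d16. Ligand-observed 19F spectra were recorded with 1H decoupling, 64 scans and a 5 s relaxation delay.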

HRas^G12V [2] = biological target: T1, HRas^G12V; experiment: 19F T2-CPMG NMR score; format: binding
How it was run: as §1

HRas^G12V [3] = biological target: T1, HRas^G12V; experiment: Overall binding/activity in the various assays (NMR consensus binding)
Procedure: Since the fragment library was curated using phosphate buffer, 25 mM sodium phosphate pH 7.4, 150 mM NaCl, 5 mM MgCl2, 1 mM TCEP-d16, 10% D2O Fresh TCEP was used for experiments. Screening was performed using ^1H-decoupled 1D ^19F experiment Bruker experiment (zgfhigqn.2) with 64 scans and a relaxation delay of 5 seconds. 50 μM HRas^G12V and 240 μM of each fragment in pools (mixtures) were used.
Hit confirmation was performed using the same ^19F experiment as the screen. Ligand-observed 1D ^1H, protein-observed 1D ^1H, ^1H T2-CPMG as well as Saturation Transfer Difference (STD) experiments were also run on the same samples. Ligand-observed 1D ^1H was run using the standard Bruker sequence with excitation sculpting (zgesgp) with a relaxation delay of 10 seconds and 16 scans per spectrum. Protein-observed 1D ^1H was performed using the same sequence with a relaxation delay of 1 second and 256 scans in order to increase the signal-to-noise of the protein resonances, while keeping the experimental time relatively short. The ^1H T2-CPMG experiment employed a modified version of the Bruker 1D ^1H zgesgp experiment with the addition of a CPMG pulse train after the first 90° excitation pulse. Total duration for each spin echo was fixed at 1 ms (τ=500 μs), while the number of echoes in the pulse train was varied according to the total time (T). The number of scans for each spectrum was 4 and eight delay times were run on each sample, ranging from 1 ms to 800 ms.
STD experiments consisted of two independent spectra with offsets of 0 ppm (on resonance) and −20 ppm (off resonance). […] 160 scans were acquired for each spectrum.
The results obtained with the compounds in the various assays described above are depicted in Table 21.
Because of its power to probe the intrinsically weak interactions (Kd) between targets and low-molecular weight fragments, NMR fragment-based lead discovery (FBLD) is a very useful biophysical method in early stage drug discovery, especially for challenging target proteins; including those with shallow binding pockets. Since FBLD screens are performed using low-molecular weight compounds (fragments) with lower structural complexity, the same chemical space can be covered using a smaller number of drug-like fragments versus use of large libraries of higher-molecular weight lead-like compounds as in high throughput screening (HTS) campaigns. Therefore, FBLD has a much higher hit rate than HTS using only several hundred to several thousand compounds in comparison with approximately 1 million compounds for HTS. Also, the small size of the compounds screened in FBLD means a better chance to fully match the interactions with small or transient pockets within the target protein, where these less tractable pockets cannot be accessed with standard classical HTS methods. […] We expect this methodology to be more advantageous than classical HTS methods for expediting the time from hit to lead (H2L) and allows for rapid access to high quality leads with lower attrition rates in subsequent lead optimization (LO) campaigns toward pre-clinical candidate selection. FBLD screening by NMR involves a “consensus binding” approach where several distinct NMR experiments (DLB, STD, CPMG) are applied along with a free-state aggregation detection method (T2-CPMG) to rank the compounds for their affinity to the receptor (HRAS in this case) whilst simultaneously monitoring the solution behavior and critical quality attributes of each compound. The latter helps to eliminate artifact binders which are highly problematic. We performed a fluorine screen involving 461 compounds that were derived from a highly curated fragment library. Moreover, two-dimensional ^15N HSQC NMR was also used to validate ligand-binding sites on the target protein. In addition, we employed protein-detected biophysical measurements were employed to determine fragment binding affinities to the target protein (Kd) by HSQC NMR. […]

T1 sequence (P01112 1-166 G12V): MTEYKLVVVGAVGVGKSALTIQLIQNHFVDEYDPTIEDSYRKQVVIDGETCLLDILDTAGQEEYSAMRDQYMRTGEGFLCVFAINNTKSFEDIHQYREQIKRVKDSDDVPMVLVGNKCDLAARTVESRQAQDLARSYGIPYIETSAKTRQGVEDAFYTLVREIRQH

SMILES: CCOC(=O)C(CC(C)C)NC(=O)Cc1c[nH]c2cc(F)ccc12 (stereo not drawn) [Compound 10093]
19F DLB Score (HRas^G12V [1]): 1.35
19F T2-CPMG Score (HRas^G12V [2]): 4.89
Binding to HRas^G12V (in words) (HRas^G12V [3]): low or no binding

SMILES: CN1CCN(C(=O)Cc2c[nH]c3cc(F)ccc23)[C@@H](C(=O)O)C1 [Compound 10165, (R)-1-(2-(6-fluoro-1H-indol-3-yl)acetyl)-4-methylpiperazine-2-carboxylic acid]
19F DLB Score (HRas^G12V [1]): 1.58
19F T2-CPMG Score (HRas^G12V [2]): 5.28
Binding to HRas^G12V (in words) (HRas^G12V [3]): low or no binding

SMILES: CCOC(=O)[C@@H](C)NC(=O)Cc1c[nH]c2cc(F)ccc12 [Compound 10037]
19F DLB Score (HRas^G12V [1]): 1.25
19F T2-CPMG Score (HRas^G12V [2]): 4.07
Binding to HRas^G12V (in words) (HRas^G12V [3]): low or no binding

SMILES: CC1(C)OC(=O)C(C(c2ccccc2F)c2c[nH]c3cc(F)ccc23)C(=O)O1 (stereo not drawn) [Compound 11041]
19F DLB Score (HRas^G12V [1]): 1.65
19F T2-CPMG Score (HRas^G12V [2]): 3.61
Binding to HRas^G12V (in words) (HRas^G12V [3]): low or no binding

SMILES: Cc1[nH]c2cc(F)ccc2c1CC(=O)N1CCC1 [Compound 10077, 1-(azetidin-1-yl)-2-(6-fluoro-2-methyl-1H-indol-3-yl)ethan-1-one]
19F DLB Score (HRas^G12V [1]): 0.96
19F T2-CPMG Score (HRas^G12V [2]): 0.41
Binding to HRas^G12V (in words) (HRas^G12V [3]): low or no binding

SMILES: CCOC(=O)[C@H](C)NC(=O)Cc1c[nH]c2cc(F)ccc12 [Compound 10038]
19F DLB Score (HRas^G12V [1]): 1.1
19F T2-CPMG Score (HRas^G12V [2]): 2.19
Binding to HRas^G12V (in words) (HRas^G12V [3]): low or no binding

SMILES: CC1CN(C(=O)Cc2cc3cc[nH]c3cc2F)C1 [Compound 10176, 2-(6-fluoro-1H-indol-5-yl)-1-(3-methylazetidin-1-yl) ethan-1-one]
19F DLB Score (HRas^G12V [1]): 1.01
19F T2-CPMG Score (HRas^G12V [2]): 0.19
Binding to HRas^G12V (in words) (HRas^G12V [3]): low or no binding

SMILES: COC(=O)[C@H]1CN(C)CCN1C(=O)Cc1c[nH]c2cc(F)ccc12 [Compound 10157, Methyl (R)-1-(2-(6-fluoro-1H-indol-3-yl)acetyl)-4-methylpiperazine-2-carboxylate]
19F DLB Score (HRas^G12V [1]): 1.04
19F T2-CPMG Score (HRas^G12V [2]): 3.58
Binding to HRas^G12V (in words) (HRas^G12V [3]): low or no binding

SMILES: CCOC(=O)C(CO)NC(=O)Cc1c[nH]c2cc(F)ccc12 (stereo not drawn) [Compound 10105]
19F DLB Score (HRas^G12V [1]): 1.2
19F T2-CPMG Score (HRas^G12V [2]): 2.44
Binding to HRas^G12V (in words) (HRas^G12V [3]): low or no binding

SMILES: CCN(CC)CC(=O)NCCc1c[nH]c2cc(F)ccc12 [Compound 10064]
19F DLB Score (HRas^G12V [1]): 1.16
19F T2-CPMG Score (HRas^G12V [2]): 1.74
Binding to HRas^G12V (in words) (HRas^G12V [3]): low or no binding

SMILES: O=S(=O)(NCCc1c[nH]c2cc(F)ccc12)c1ccc(F)cc1 [Compound 10046]
19F DLB Score (HRas^G12V [1]): 1.02
19F T2-CPMG Score (HRas^G12V [2]): 0.79
Binding to HRas^G12V (in words) (HRas^G12V [3]): low or no binding

SMILES: CC(C)(C)OC(=O)n1cc(CC#N)c2ccc(F)cc21 [Compound 11013]
19F DLB Score (HRas^G12V [1]): 0.4
19F T2-CPMG Score (HRas^G12V [2]): 1.74
Binding to HRas^G12V (in words) (HRas^G12V [3]): low or no binding

SMILES: Cn1cc(CC(=O)N2CCC2)c2ccc(F)cc21 [Compound 10024, 1-(azetidin-1-yl)-2-(6-fluoro-1-methyl-1H-indol-3-yl) ethan-1-one]
19F DLB Score (HRas^G12V [1]): 1.06
19F T2-CPMG Score (HRas^G12V [2]): 0.01
Binding to HRas^G12V (in words) (HRas^G12V [3]): low or no binding

Results, then the molecule that gave them:

19F DLB Score (HRas^G12V [1]): 1.43
19F T2-CPMG Score (HRas^G12V [2]): 4.84
Binding to HRas^G12V (in words) (HRas^G12V [3]): low or no binding
SMILES: CCOC(=O)[C@@H]1CN(C(=O)Cc2c[nH]c3cc(F)ccc23)CCO1 [Compound 10168]

19F DLB Score (HRas^G12V [1]): 1.53
19F T2-CPMG Score (HRas^G12V [2]): 6.9
Binding to HRas^G12V (in words) (HRas^G12V [3]): low or no binding
SMILES: O=C(NCCc1c[nH]c2cc(F)ccc12)[C@@H]1CCCO1 [Compound 10023, (S)—N-(2-(6-fluoro-1H-indol-3-yl)ethyl) tetrahydrofuran-2-carboxamide]

19F DLB Score (HRas^G12V [1]): 1.35
19F T2-CPMG Score (HRas^G12V [2]): 4.49
Binding to HRas^G12V (in words) (HRas^G12V [3]): low or no binding
SMILES: O=C(Cc1c[nH]c2cc(F)ccc12)N[C@@H]1CCOC1 [Compound 10071]

19F DLB Score (HRas^G12V [1]): 1.6
19F T2-CPMG Score (HRas^G12V [2]): 7.14
Binding to HRas^G12V (in words) (HRas^G12V [3]): low or no binding
SMILES: CCOC(=O)[C@H]1CN(C(=O)Cc2c[nH]c3cc(F)ccc23)CCO1 [Compound 10169]

19F DLB Score (HRas^G12V [1]): 1.22
19F T2-CPMG Score (HRas^G12V [2]): 2.95
Binding to HRas^G12V (in words) (HRas^G12V [3]): low or no binding
SMILES: CCOC(=O)CNC(=O)Cc1c[nH]c2cc(F)ccc12 [Compound 10050]

19F DLB Score (HRas^G12V [1]): 1.17
19F T2-CPMG Score (HRas^G12V [2]): 2.3
Binding to HRas^G12V (in words) (HRas^G12V [3]): low or no binding
SMILES: CC(=O)N1CCC[C@H](NC(=O)Cc2c[nH]c3cc(F)ccc23)C1 [Compound 10073, (S)—N-(1-acetylpiperidin-3-yl)-2-(6-fluoro-1H-indol-3-yl)acetamide]

19F DLB Score (HRas^G12V [1]): 1.61
19F T2-CPMG Score (HRas^G12V [2]): 5.59
Binding to HRas^G12V (in words) (HRas^G12V [3]): low or no binding
SMILES: CC(=O)NC[C@@H]1CN(C(=O)Cc2c[nH]c3cc(F)ccc23)CCO1 [compound 10164]

19F DLB Score (HRas^G12V [1]): 1.03
19F T2-CPMG Score (HRas^G12V [2]): 3.54
Binding to HRas^G12V (in words) (HRas^G12V [3]): low or no binding
SMILES: O=C(O)[C@H]1COCCN1C(=O)Cc1c[nH]c2cc(F)ccc12 [Compound 10152]

19F DLB Score (HRas^G12V [1]): 1.07
19F T2-CPMG Score (HRas^G12V [2]): 1.59
Binding to HRas^G12V (in words) (HRas^G12V [3]): low or no binding
SMILES: CC(C)(CNC(=O)Cc1c[nH]c2cc(F)ccc12)C(=O)O [Compound 10062]

19F DLB Score (HRas^G12V [1]): 1.39
19F T2-CPMG Score (HRas^G12V [2]): 3.22
Binding to HRas^G12V (in words) (HRas^G12V [3]): low or no binding
SMILES: O=C(O)[C@H]1CN(C(=O)Cc2c[nH]c3cc(F)ccc23)CCO1 [Compound 10153]

19F DLB Score (HRas^G12V [1]): 1.06
19F T2-CPMG Score (HRas^G12V [2]): 2.65
Binding to HRas^G12V (in words) (HRas^G12V [3]): low or no binding
SMILES: O=C(O)C1CCN1C(=O)Cc1c[nH]c2cc(F)ccc12 (stereo not drawn) [Compound 10102, 1-(2-(6-fluoro-1H-indol-3-yl)acetyl) azetidine-2-carboxylic acid]

19F DLB Score (HRas^G12V [1]): 1.51
19F T2-CPMG Score (HRas^G12V [2]): 6.28
Binding to HRas^G12V (in words) (HRas^G12V [3]): low or no binding
SMILES: CC(=O)N1CC[C@H](NC(=O)Cc2c[nH]c3cc(F)ccc23)C1 [compound 10090]

19F DLB Score (HRas^G12V [1]): 1.65
19F T2-CPMG Score (HRas^G12V [2]): 5.5
Binding to HRas^G12V (in words) (HRas^G12V [3]): low or no binding
SMILES: CC(=O)NC[C@H]1CN(C(=O)Cc2c[nH]c3cc(F)ccc23)CCO1 [Compound 10162, (S)—N-((4-(2-(6-fluoro-1H-indol-3-yl)acetyl)morpholin-2-yl)methyl) acetamide]
